Reference: patent US20260317337A1, “HETEROCYCLIC COMPOUNDS FOR IMAGING AGGREGATED ALPHA SYNUCLEIN IN THE SYNUCLEINOPATHIES” (THE TRUSTEES OF THE UNIVERSITY OF PENNSYLVANIA, priority 2023, published 2026)

target: α-synuclein fibrils (Homo sapiens, UniProt P37840); assay: Competitive radioligand binding with [^3H]BF2846 on α-synuclein fibrils; details: [^3H]BF2846, α-synuclein fibrils; mean + Sd, n = 3; read-out: α-syn Ki
Description: Competition binding assays were performed with [^3H]BF2846 and [^3H]PIB to measure affinity to Asyn and Aβ. […]

| Ki [nM] | Compound |
| --- | --- |
| 12.8 | CCOC(=O)c1cnc(N2CCN(c3ccc(OC)cc3)CC2)nc1N [Compound 17, Ethyl 4-amino-2-(4-(4-methoxyphenyl)piperazin-1-yl)pyrimidine-5-carboxylate] |
| 255 | COc1ccc(NC(=O)c2cnc(N3CC4CCC(C3)N4c3cc4ccccc4cn3)nc2N)cc1 [Compound 21, 4-Amino-2-(8-(isoquinolin-3-yl)-3,8-diazabicyclo[3.2.1]octan-3-yl)-N-(4-methoxyphenyl)pyrimidine-5-carboxamide] |
| 11.6 | CCOC(=O)c1cnc(N2C3CCC2CN(c2ccccn2)C3)nc1N [Compound 1, Ethyl 4-amino-2-(3-(pyridin-2-yl)-3,8-diazabicyclo[3.2.1]octan-8-yl)pyrimidine-5-carboxylate] |
| 9.9 | CCOC(=O)c1cnc(N2CC3CCC(C2)N3c2cnc3ccccc3c2)nc1N [Compound 6, Ethyl 4-amino-2-(8-(quinolin-3-yl)-3,8-diazabicyclo[3.2.1]octan-3-yl)pyrimidine-5-carboxylate] |
| 44.5 | COc1ccc(NC(=O)c2cnc(N3CCN(c4ccc(OC)cc4)CC3)nc2N)cc1 [Compound 33, 4-Amino-N-(4-methoxyphenyl)-2-(4-(4-methoxyphenyl)piperazin-1-yl)pyrimidine-5-carboxamide] |
| 21.9 ± 9.7 | COc1ccc(C(=O)Nc2ccc(N3CCC4(CC3)CCN(c3ccccn3)C4)cc2)cc1 [Compound 101, 4-methoxy-N-(4-(2-(pyridin-2-yl)-2,8-diazaspiro[4.5]decan-8-yl)phenyl)benzamide] |
| 12.9 | CCOC(=O)c1cnc(N2CCN(c3nc4ccccc4s3)CC2)nc1N [Compound 11, Ethyl 4-amino-2-(4-(benzo[d]thiazol-2-yl)piperazin-1-yl)pyrimidine-5-carboxylate] |
| 142 | COc1ccc(NC(=O)c2cnc(N3CCN(c4cccnc4)CC3)nc2N)cc1 [Compound 118, 4-Amino-N-(4-methoxyphenyl)-2-(4-(pyridin-3-yl)piperazin-1-yl)pyrimidine-5-carboxamide] |
| 2.4 | CCOC(=O)c1cnc(N2CCN(c3cnc4ccccc4n3)CC2)nc1N [Compound 16, Ethyl 4-amino-2-(4-(quinoxalin-2-yl)piperazin-1-yl)pyrimidine-5-carboxylate] |
| 8.9 | CCOC(=O)c1cnc(N2CCCN(c3ccccn3)CC2)nc1N [Compound 7, Ethyl 4-amino-2-(4-(pyridin-2-yl)-1,4-diazepan-1-yl)pyrimidine-5-carboxylate] |
| 10.8 | CCOC(=O)c1cnc(N2CCN(c3ccc4ccccc4n3)CC2)nc1N [Compound 15, Ethyl 4-amino-2-(4-(quinolin-2-yl)piperazin-1-yl)pyrimidine-5-carboxylate] |
| 8.7 ± 0.6 | COc1ccc(C(=O)Nc2ccc(N3CCCN(c4ccccn4)CC3)cc2)cc1 [Compound 107, 4-methoxy-N-(4-(4-(pyridin-2-yl)-1,4-diazepan-1-yl)phenyl)benzamide] |
| 7.5 | N#Cc1cnc(N2CCN(c3ccccn3)CC2)nc1N [Compound 41, 4-Amino-2-(4-(pyridin-2-yl)piperazin-1-yl)pyrimidine-5-carbonitrile] |
| 6.5 | COc1ccc(NC(=O)c2cnc(Cl)nc2)cc1 [Compound 43, 2-Chloro-N-(4-methoxyphenyl)pyrimidine-5-carboxamide] |
| 41.4 | Nc1nc(N2CCN(c3ccccn3)CC2)ncc1C(=O)OCCO [Compound 37, 2-Hydroxyethyl 4-amino-2-(4-(pyridin-2-yl)piperazin-1-yl)pyrimidine-5-carboxylate] |
| 5 ± 0.34 | COc1ccc(C(=O)Nc2ccc(N3CCN(c4ccccn4)CC3)cn2)cc1 [Compound 109, 4-methoxy-N-(5-(4-(pyridin-2-yl)piperazin-1-yl)pyridin-2-yl)benzamide] |
| 5.5 | CCOC(=O)c1cnc(N2CC3CCC(C2)N3c2ccccn2)nc1N [Compound 4, Ethyl 4-amino-2-(8-(pyridin-2-yl)-3,8-diazabicyclo[3.2.1]octan-3-yl)pyrimidine-5-carboxylate] |
| 23.4 | CCOC(=O)c1cnc(N2C3CCC2CN(c2nc4ccccc4s2)C3)nc1N [Compound 12, Ethyl 4-amino-2-(3-(benzo[d]thiazol-2-yl)-3,8-diazabicyclo[3.2.1]octan-8-yl)pyrimidine-5-carboxylate] |
| 8.4 | CCOC(=O)c1cnc(N2CCN(c3cnccn3)CC2)nc1N [Compound 121, Ethyl 4-amino-2-(4-(pyrazin-2-yl)piperazin-1-yl)pyrimidine-5-carboxylate] |
| 28.6 ± 33 | COc1ccc(C(=O)Nc2ccc(N3CC(OC)C3)cc2)cc1 [Compound 115, 4-methoxy-N-(4-(3-methoxyazetidin-1-yl)phenyl)benzamide] |

| Ki [nM] | Compound |
| --- | --- |
| 15.2 | CCOC(=O)c1cnc(N2CCCN(c3cnc4ccccc4c3)CC2)nc1N [Compound 8, Ethyl 4-amino-2-(4-(quinolin-3-yl)-1,4-diazepan-1-yl)pyrimidine-5-carboxylate] |
| 26.3 | CCOC(=O)c1cnc(N2C3CCC2CN(c2cc4ccccc4cn2)C3)nc1N [Compound 2, Ethyl 4-amino-2-(3-(isoquinolin-3-yl)-3,8-diazabicyclo[3.2.1]octan-8-yl)pyrimidine-5-carboxylate] |
| 522 | COc1ccc(NC(=O)c2cnc(N3CC4CCC(C3)N4c3cnc4ccccc4c3)nc2N)cc1 [Compound 126, 4-Amino-N-(4-methoxyphenyl)-2-(8-(quinolin-3-yl)-3,8-diazabicyclo[3.2.1]octan-3-yl)pyrimidine-5-carboxamide] |
| 84.1 | Cc1cnc(N2CCN(c3ccccn3)CC2)nc1N [Compound 39, 5-Methyl-2-(4-(pyridin-2-yl)piperazin-1-yl)pyrimidin-4-amine] |
| 12.1 | CCOC(=O)c1cnc(N2CCN(c3cc4ccccc4cn3)CC2)nc1N [Compound 13, Ethyl 4-amino-2-(4-(isoquinolin-3-yl)piperazin-1-yl)pyrimidine-5-carboxylate] |
| 12.7 ± 2.3 | O=C(Nc1ccc(N2C3CCC2CN(c2ccccn2)C3)cc1)c1ccc(OCCF)cc1 [Compound 116, 4-(2-fluoroethoxy)-N-(4-(3-(pyridin-2-yl)-3,8-diazabicyclo[3.2.1]octan-8-yl)phenyl)benzamide] |
| 19.5 | CCOC(=O)c1cnc(N2CCN(c3ncccn3)CC2)nc1N [Compound 119, Ethyl 4-amino-2-(4-(pyrimidin-2-yl)piperazin-1-yl)pyrimidine-5-carboxylate] |
| 23.3 | CCOC(=O)c1cnc(N2C3CCC2CN(c2cnc4ccccc4c2)C3)nc1N [Compound 3, Ethyl 4-amino-2-(3-(quinolin-3-yl)-3,8-diazabicyclo[3.2.1]octan-8-yl)pyrimidine-5-carboxylate] |
| 1.1 | COc1ccc(NC(=O)c2cnc(N3CCN(c4nc5ccccc5s4)CC3)nc2N)cc1 [Compound 27, 4-Amino-2-(4-(benzo[d]thiazol-2-yl)piperazin-1-yl)-N-(4-methoxyphenyl)pyrimidine-5-carboxamide] |
| 4 | CCOC(=O)c1cnc(N2CCN(c3ccccn3)CC2)nc1N [Compound 9, Ethyl 4-amino-2-(4-(pyridin-2-yl)piperazin-1-yl)pyrimidine-5-carboxylate] |
| 1.26 | Nc1nc(N2CCN(c3nc4ccccc4o3)CC2)ncc1C(=O)Nc1ccc(OCCF)cc1 [Compound 133, 4-Amino-2-(4-(benzo[d]oxazol-2-yl)piperazin-1-yl)-N-(4-(2-fluoroethoxy)phenyl)pyrimidine-5-carboxamide] |
| 45 | COc1ccc(NC(=O)c2cnc(N3C4CCC3CN(c3cc5ccccc5cn3)C4)nc2N)cc1 [Compound 19, 4-Amino-2-(3-(isoquinolin-3-yl)-3,8-diazabicyclo[3.2.1]octan-8-yl)-N-(4-methoxyphenyl)pyrimidine-5-carboxamide] |
| 16.9 | Nc1nc(N2CCN(c3ccccn3)CC2)ncc1C(=O)Nc1ccc(OC[C@H](O)CF)cc1 [Compound 135, (S)-4-amino-N-(4-(3-fluoro-2-hydroxypropoxy)phenyl)-2-(4-(pyridin-2-yl)piperazin-1-yl)pyrimidine-5-carboxamide] |
| 10 | Nc1nc(N2CCN(c3ccccn3)CC2)ncc1C(=O)Nc1ccc(F)cc1 [Compound 34, 4-Amino-N-(4-fluorophenyl)-2-(4-(pyridin-2-yl)piperazin-1-yl)pyrimidine-5-carboxamide] |
| 58.5 | CCOC(=O)c1cnc(N2CC3CCC(C2)N3c2cc3ccccc3cn2)nc1N [Compound 5, Ethyl 4-amino-2-(8-(isoquinolin-3-yl)-3,8-diazabicyclo[3.2.1]octan-3-yl)pyrimidine-5-carboxylate] |
| 3.1 | CCOC(=O)c1cnc(N2CCN(c3cnc4ccccc4c3)CC2)nc1N [Compound 14, Ethyl 4-amino-2-(4-(quinolin-3-yl)piperazin-1-yl)pyrimidine-5-carboxylate] |
| 29.9 | COc1ccc(NC(=O)c2cnc(N3CCN(c4nccs4)CC3)nc2N)cc1 [Compound 124, 4-Amino-N-(4-methoxyphenyl)-2-(4-(thiazol-2-yl)piperazin-1-yl)pyrimidine-5-carboxamide] |
| 6 | COc1ccc(NC(=O)c2cnc(N3CCN(c4nc5ccccc5o4)CC3)nc2N)cc1 [Compound 26, 4-Amino-2-(4-(benzo[d]oxazol-2-yl)piperazin-1-yl)-N-(4-methoxyphenyl)pyrimidine-5-carboxamide] |
| 51.1 | CCOC(=O)c1cnc(N2CCN(c3nccs3)CC2)nc1N [Compound 123, Ethyl 4-amino-2-(4-(thiazol-2-yl)piperazin-1-yl)pyrimidine-5-carboxylate] |

| Compound | Ki [nM] |
| --- | --- |
| COc1ccc(C(=O)Nc2ccc(N3C4CCC3CN(c3cnc5ccccc5n3)C4)cc2)cc1 [Compound 105, 4-methoxy-N-(4-(3-(quinoxalin-2-yl)-3,8-diazabicyclo[3.2.1]octan-8-yl)phenyl)benzamide] | 47.6 ± 14 |
| COc1ccc(C(=O)Nc2ccc(N3C4CCC3CN(c3ccccn3)C4)cc2)cc1 [Compound 103, 4-methoxy-N-(4-(3-(pyridin-2-yl)-3,8-diazabicyclo[3.2.1]octan-8-yl)phenyl)benzamide] | 6.1 ± 2.1 |
| COc1ccc(C(=O)Nc2ccc(N3C4CCC3CN(c3ccccn3)C4)cn2)cc1 [Compound 110, 4-methoxy-N-(5-(3-(pyridin-2-yl)-3,8-diazabicyclo[3.2.1]octan-8-yl)pyridin-2-yl)benzamide] | 44.1 ± 32 |
